# Values of other authors in the CATMoS acute toxicity set (Mansouri et al. 2021).
# Several values for one entry are separate records, joined by “and”; a condition that tells them apart may be missing. Identical values can stand only once.
# Test: rat acute oral toxicity
# Settings: in vivo
row,Compound,LD50
1,OCC(O)CCl (stereo not given),26 mg/kg
2,CC(C)NCC(O)COc1ccccc1C1CCCCC1 (stereo not given),1850 mg/kg
3,O=P(O)(O)OC(=CCl)c1ccc(Cl)cc1Cl,13 mg/kg
4,CN1CSC(=S)N(C)C1,320 mg/kg
5,CC(C)c1ccccc1N,1180 mg/kg
6,CCCCOC(=O)CCCOc1ccc(Cl)cc1Cl,300 mg/kg
7,BrC=CBr,117 mg/kg and 62 mg/kg
8,COP(=S)(OC)Oc1ccc([N+](=O)[O-])c(Cl)c1,285 mg/kg
9,O=C(Cc1cccs1)N[C@@H]1C(=O)N2C(C(=O)[O-])=C(C[n+]3ccccc3)CS[C@H]12,2500 mg/kg
10,CCCCCCOC(=O)c1ccccc1C(=O)OCCCCCC,29600 mg/kg
11,CN(C)c1ccc(C(=C2C=CC(=[N+](C)C)C=C2)c2ccc(N(C)C)cc2)cc1,420 mg/kg
12,O=NN1CC=CCO1,900 mg/kg
13,CCCCC(O)C(N)CC (stereo not given),550 mg/kg
14,CC(C)c1ccccc1OP(=O)(Oc1ccccc1)Oc1ccccc1,10000 mg/kg
15,ClC1=C(Cl)C2(Cl)C(C(Cl)Cl)CC1(Cl)C2(Cl)Cl (stereo not given),1600 mg/kg
16,C=C(C)C1CC=C(CO)CC1 (stereo not given),2100 mg/kg
17,OCCSSCCO,173 mg/kg
18,Cc1c(F)c(N2CCNC(C)C2)cc2c1c(=O)c(C(=O)O)cn2C1CC1 (stereo not given),3030 mg/kg
19,CCCCOC(C[n+]1ccccc1)c1ccccc1 (stereo not given),250 mg/kg
20,COP(=S)(OC)OC1CCCCC1,2900 mg/kg
21,O=C(CF)NCc1ccc(Br)cc1,410 mg/kg
22,Brc1ccc2[nH]cc(CC3CCNCC3)c2c1,25 mg/kg
23,CCO[Si](C)(C)c1ccccc1,2460 mg/kg
24,NNC(=S)NN,21.6 mg/kg
25,O=C(/C=C/C=C/c1ccc2c(c1)OCO2)N1CCCCC1,514 mg/kg

row,Compound,LD50
1,CCOC(=O)C(N)Cc1ccc(O)cc1 (stereo not given),13800 mg/kg
2,CN1COCN(Cc2cnc(Cl)s2)C1=N[N+](=O)[O-],1560 mg/kg
3,OC1OCC2C1C1(Cl)C(Cl)=C(Cl)C2(Cl)C1(Cl)Cl (stereo not given),1750 mg/kg
4,CCOS(=O)(=O)OCC,880 mg/kg
5,COc1cccc(C2(O)CCCCC2CN(C)C)c1 (stereo not given),228 mg/kg
6,COP(=O)(OC)Oc1ccc(SC)cc1,7 mg/kg
7,O=C(O)c1snc(Cl)c1Cl,1200 mg/kg
8,CC1(CCO)CCOCO1 (stereo not given),8800 mg/kg
9,ClCc1c(Cl)cc(Cl)cc1Cl,3080 mg/kg
10,O=P(O)(O)Oc1c(Br)cc(Br)cc1-c1cc(Br)cc(Br)c1O,142 mg/kg
11,O=C(OCC1CO1)c1ccccc1C(=O)OCC1CO1 (stereo not given),1240 mg/kg
12,CCC1COC(Cn2cncn2)(c2ccc(Cl)cc2Cl)O1 (stereo not given),1340 mg/kg
13,CCC(C(=O)OCCOCCN(CC)CC)c1ccccc1 (stereo not given),4160 mg/kg
14,CN(C)CCC(c1ccc(Br)cc1)c1ccccn1 (stereo not given),318 mg/kg
15,CC(C)NCC(O)COc1cccc2[nH]ccc12 (stereo not given),263 mg/kg
16,Cc1cccc(C)c1N/N=C(/N)N(C)C,980 mg/kg
17,O=C1CCCN1CCO,14400 mg/kg
18,CCCCCCC1=CC(=O)CC(c2ccc3c(c2)OCO3)C1 (stereo not given),5200 mg/kg
19,CCS(=O)Cc1ccccc1OC(=O)NC (stereo not given),150 mg/kg
20,Clc1ccc([Si]23OCCN(CCO2)CCO3)cc1,520 mg/kg
21,CCCc1ccc(O)c(OC)c1,2600 mg/kg
22,O=[N+]([O-])c1cc(C(F)(F)F)cc([N+](=O)[O-])c1Cl,930 mg/kg
23,O=C(CCCl)OC1=C(OC(=O)CCCl)C(=O)OC1=O,7000 mg/kg
24,C[C@H](CN1CCOCC1)C(C(=O)N1CCCC1)(c1ccccc1)c1ccccc1,71.8 mg/kg
25,Cc1ccc2[nH]c(C(F)(F)F)nc2c1[N+](=O)[O-],7.75 mg/kg

row,Compound,LD50
1,C=CCC(CC=C)C(=O)O,570 mg/kg
2,O=C1CC2(CCCC2)CC(=O)N1CCCCN1CCN(c2nsc3ccccc23)CC1,1850 mg/kg
3,CC[N+]1(CC)CCCO1,150 mg/kg
4,CCCCC(CC)COC(=O)c1ccccc1C(=O)OCC(CC)CCCC (stereo not given),30000 mg/kg
5,CN(C)CCC=C(c1ccccc1)c1ccc(C(F)(F)F)cc1,1000 mg/kg
6,C=CCOc1ccc(C2=C(c3ccccc3)C(C)(C)Oc3cc(OC)ccc32)cc1,500 mg/kg
7,C=CCc1ccc2c(c1)OCO2,1950 mg/kg
8,C=Cc1ccc(C)nc1,1170 mg/kg
9,O=NN1CCCCCC1,336 mg/kg
10,CC(C)=NNC(=O)CSc1cc(Oc2ccc(F)cc2)ncn1,380 mg/kg
11,O=C(O)CS(=O)(=O)O,3160 mg/kg
12,COc1ccc(C=Nc2c(C)n(C)n(-c3ccccc3)c2=O)cc1,10000 mg/kg
13,O=S1(=O)CCC(NC(=S)S)C1 (stereo not given),1700 mg/kg
14,C=CC(=O)OCCOCC,1070 mg/kg
15,O=c1c2nocc2c(-c2ccccc2)nn1-c1ccccc1,1000 mg/kg
16,COC(=O)C(C(C)=O)C(C)=O,1700 mg/kg
17,COc1ccc(C=C2C(=O)N=C3c4ccccc4N=CN23)cc1,258 mg/kg
18,c1nnc(NCNc2nncs2)s1,260 mg/kg
19,N#CC(OC1OC(COC2OC(CO)C(O)C(O)C2O)C(O)C(O)C1O)c1ccccc1 (stereo not given),517 mg/kg
20,COc1ccc(/C=C/C(=O)Nc2ccccc2C(=O)O)cc1OC,1100 mg/kg
21,COC(=O)c1c(C(F)F)nc(C(F)(F)F)c(C(=O)OC)c1CC(C)C,1420 mg/kg
22,C[N+]1(C)CCCCC1COC(=O)C(O)(c1ccccc1)c1ccccc1 (stereo not given),5080 mg/kg
23,CN1CC2=C(C1)CN(c1c(F)cc3c(=O)c(C(=O)O)cn(C4CC4)c3c1F)C2,1060 mg/kg
24,NC(=O)C1CCN(CCCN2c3ccccc3Sc3ccc(Cl)cc32)CC1,620 mg/kg
25,CCCCCCCCCCCCCOCCOCCOCCOCCOCCOCCO,1400 mg/kg
